How the values were obtained:
[1] = tested on: male dd-strain mice; experiment: acute toxicity test; format: in vivo
Description: […]. The Minimum lethal dose (MLD) of the compounds was determined by observing whether or not the mice were alive after 7 days of the administration.

[2] = tested on: Wistar rats; experiment: diuretic effect; format: in vivo; conditions: 25 mg/kg oral, urine collected for 6 hours; for Increase in K⁺ excretion (%) / Increase in Na⁺excretion (%) / Increase in Urine (%): relative to control; for Na⁺/K⁺: relative value of control (control 1.00)
Description: Wistar rats (male: 150 - 300 g) were starved for 18 hours prior to the administration of the test compounds. […] Urine was collected for 6 hours after the administration. Urine volume was measured and the electrolytes (Na+ and K+) in the urine were determined with a flame photome[…], Hitachi Ltd., Japan). All parameters are expressed as relative values of control.

[3] = tested on: glycerol-induced renal failure model; experiment: renal-protecting effect (glycerol-induced renal failure model); format: in vivo; conditions: male Wistar rats; for suppression of increases of the serum creatinine and of urine-nitrogen: 0.01 - 10 mg/kg i.p., 24 hours after 50% glycerol s.c. (p < 0.05); for pathological examination of removed kidneys: state of kidneys: i.p., left kidney removed 24 hours after 50% glycerol s.c.
Description: A renal failure is a state wherein the renal function is lowered and the homeostasis of a body fluid can be no more maintained. It is known that an acute renal failure characteristic of uriniferous tubule disorder is caused by subcutaneous or intramuscular injection of glycerol to rats [Can. J. Physiol.
Male Wistar rats were kept deprived or water for 18 hours, and served for the test. A test compound was intraperitoneally administered to the rats (dosage: 1 mℓ/kg) and the rats were anesthetized with ether and 50% glycerol was subcutaneously administered (dosage: 0.8mℓ/100g) to the rats, pinching the dorsal skin. Twenty four hours after the administration of glycerol, the rats were anesthetized with ether and 5 mℓ of blood were collected from the abdominal aorta. The collected blood was allowed to stand for 30 minutes or longer and then centrifuged at 3,000 rpm for 10 minutes, and the amounts of the serum creatinine and urine-nitrogen (UN) contained in the serum were determined by auto analyzer (Olympus AU510) or measured by a creatinine test Wako (Jaffé method) and UN Test Wako (diacetylmonooxime direct method). Both are manufactured by Wako Pure Chemicals Co.
On the other hand, the left kidneys of the blood-sampled rats were removed and placed in formalin-filled vial bottles, and used as samples for the pathological examination.

[4] = target: T1, A₂ receptor (Rattus norvegicus, UniProt P30543); experiment: Adenosine A2 receptor binding (3H-NECA binding); conditions: for inhibition at 10 µM / inhibition at 100 µM: read-out: A₂ Receptor Inhibition (%); for Ki: ³H-NECA with CPA, rat corpus striatum, read-out: A₂ Receptor Ki
T1 construct: A precipitate was prepared from rat corpus striatum; from tissue; host or cells: rat corpus striatum membrane preparation
T1 sequence (P30543 whole entry): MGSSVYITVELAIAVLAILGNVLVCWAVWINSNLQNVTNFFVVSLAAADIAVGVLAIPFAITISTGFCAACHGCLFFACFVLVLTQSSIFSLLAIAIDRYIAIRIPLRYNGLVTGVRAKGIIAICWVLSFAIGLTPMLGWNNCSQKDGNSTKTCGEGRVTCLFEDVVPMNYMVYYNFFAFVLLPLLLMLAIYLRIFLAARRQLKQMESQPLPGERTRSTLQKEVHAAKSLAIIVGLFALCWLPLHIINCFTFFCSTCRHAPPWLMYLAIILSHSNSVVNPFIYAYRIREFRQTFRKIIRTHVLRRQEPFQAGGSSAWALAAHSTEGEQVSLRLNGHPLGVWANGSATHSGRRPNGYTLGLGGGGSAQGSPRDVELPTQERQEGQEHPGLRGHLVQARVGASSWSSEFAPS
Description: A precipitate was prepared from rat corpus striatum in a similar manner as in 1) above. The precipitate was suspended by adding a 50 mM Tris HCl buffer containing 10 mM magnesium chloride and 0.02 unit/mg (tissue) of adenosine deaminase (manufactured by Sigma Co.) to adjust the concentration of tissue to 5 mg (wet weight)/mℓ.
The mixture was incubated at 25°C within 120 minutes. The resulting mixture was treated in the same manner as in 1) above to determine its radioactivity.
The inhibition rate of the test compound against the binding of A₂ receptor (³H-NECA binding) was calculated from the following equation: [formula]

[5] = target: T2, Adenosine A₁ Receptor (Cavia porcellus, UniProt P47745); experiment: Adenosine A1 receptor binding (3H-CHA binding); design: species or system guinea pig; conditions: for Ratio of Ki Values [A₂/A₁]: A₂ Ki (rat corpus striatum) / A₁ Ki (guinea pig cerebrum); for Ki: calculated from Cheng-Prusoff's equation, ³H-CHA; for Ki / inhibition at 100 µM / inhibition at 10 µM: guinea pig cerebrum; for inhibition at 100 µM: concentration of tested compound 10⁻⁴ M; for inhibition at 100 µM / inhibition at 10 µM: ³H-CHA 1.1 nM; for inhibition at 10 µM: concentration of tested compound 10⁻⁵ M
T2 construct: from tissue; host or cells: guinea pig cerebrum membrane preparation
T2 sequence (P47745 1-326): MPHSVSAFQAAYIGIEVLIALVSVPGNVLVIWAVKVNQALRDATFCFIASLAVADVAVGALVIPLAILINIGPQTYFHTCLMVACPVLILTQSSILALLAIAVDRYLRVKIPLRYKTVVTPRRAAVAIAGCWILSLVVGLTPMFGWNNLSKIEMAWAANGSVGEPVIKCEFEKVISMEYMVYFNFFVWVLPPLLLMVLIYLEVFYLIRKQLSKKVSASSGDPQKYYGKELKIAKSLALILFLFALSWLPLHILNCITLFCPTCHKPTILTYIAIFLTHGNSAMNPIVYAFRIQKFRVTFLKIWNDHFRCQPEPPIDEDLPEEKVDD
Description: Cerebrum of a guinea pig was suspended into ice cooled 50 mM tris hydroxymethyl aminomethane hydrochloride (Tris HCl) buffer (pH = 7.7), by using Polytron homogenizer (manufactured by Kinematica Co.). The suspension was centrifuged (50,000 x g, 10 minutes), and the precipitate was resuspended by adding the same volume of 50 mM Tris HCl buffer. The suspension was centrifuged under the same conditions, and the precipitate obtained was suspended once again by adding 10 volumes of 50 mM Tris HCl. The tissue suspension was incubated at 37°C for 30 minutes in the presence of 0.02 units/mg tissue of adenosine deaminase (manufactured by Sigma Co.). The resulting tissue suspension was recentrifuged (50,000 x g, 10 minutes), and 50 mM Tris HCl was added to the precipitate to adjust the concentration of tissue to 10 mg (wet weight)/mℓ.
The mixture was incubated at 25°C for 90 minutes, and the resulting reaction was stopped by rapid vacuum filtration through a glass fiber filter (GF/C manufactured by Whatman Co.) followed by immediately washing three times with 5 mℓ each of ice cold 50 mM Tris HCl buffer. […] Its radioactivity was then determined by a scintillation counter (manufactured by Packard Instrument Co.).
The inhibition rate of the test compounds against the binding of A₁ […] (³H-CHA binding) was calculated from the following equation: [formula]
• 1. […] The inhibition constant (Ki value) shown in the table was calculated from Cheng-Prusoff's equation.

[6] = 300 mg/kg orally administered, male dd-strain mice, observed 7 days after administration

Row | Structure (SMILES) | Minimum lethal dose (MLD) ([1]; mouse, in vivo, 10080 min) | Increase in K⁺ excretion (%) [2] [%] | Increase in Na⁺excretion (%) [2] [%] | Increase in Urine (%) [2] [%] | Na⁺/K⁺ [2] | Minimum lethal dose (MLD) [1, 6] | suppression of increases of the serum creatinine and of urine-nitrogen [3] | pathological examination of removed kidneys: state of kidneys [3] | inhibition at 10 µM [4] [%] | inhibition at 100 µM [4] [%] | Ki [4] [nM] | Ratio of Ki Values [A₂/A₁] [5] | Ki [5] [nM] | inhibition at 100 µM [5] [%] | inhibition at 10 µM [5] [%]
1 | CCCn1c(=S)c2[nH]c(C34CC5CC(CC3C5)C4)nc2n(CCC)c1=S [Compound 33, 8-(Noradamantan-3-yl)-1,3-dipropyl-2,6-dithioxanthine] | more than 300 mg/kg | 40 | 105 | 99 | 1.47 | – | – | – | – | – | – | – | – | – | –
2 | CCCn1c(=S)c2[nH]c(C34CC5CC(CC3C5)C4)nc2n(CCC)c1=O [Compound 32, 8-(Noradamantan-3-yl)-1,3-dipropyl-6-thioxanthine] | more than 300 mg/kg | 41 | 114 | 100 | 1.51 | – | – | – | – | – | – | – | – | – | –
3 | CCCn1c(=O)c2[nH]c([C@@H]3CC[C@H]4CCC[C@H]43)nc2n(CCC)c1=S (relative stereo) [Compound 24, 8-[(1R*,2R*,5R*)-Bicyclo[3.3.0]octan-2-yl]-1,3-dipropyl-2-thioxanthine] | – | 61 | 125 | 112 | 1.40 | more than 300 mg/kg | – | – | – | – | – | – | – | – | –
4 | CCCn1c(=O)c2c(nc([C@H]3C[C@@H]4C=C[C@@H]3C4)n2C)n(CCC)c1=O (relative stereo) [Compound 17, 8-[(1R*,4S*, 5S*)-2-Bicyclo[2.2.1]hepten-5-yl]-1,3-dipropyl-7-methylxanthine] | more than 300 mg/kg | 51 | 107 | 155 | 1.37 | – | significantly suppressed | significantly improved | – | – | – | – | – | – | –
5 | CCCn1c(=O)c2[nH]c([C@@H]3CC[C@H]4CCC[C@H]43)nc2n(CCC)c1=O (relative stereo) [Compound 5, 8-[(1R*,2R*,5R*)-Bicyclo[3.3.0]octan-2-yl]-1,3-dipropylxanthine] | more than 300 mg/kg | 32 | 109 | 88 | 1.58 | – | – | – | 91 | 99 | 330 | 86.8 | 3.8 | 99 | 99
6 | CCCn1c(=O)c2nc(CC34CC5CC(CC(C5)C3)C4)[nH]c2n(CCC)c1=O [Compound 15, 8-(Adamantan-1-yl)methyl-1,3-dipropylxanthine] | more than 300 mg/kg | – | – | – | – | – | – | – | – | – | – | – | – | – | –
7 | CCCn1c(=O)[nH]c(=O)c2[nH]c([C@@H]3CC[C@H]4CCC[C@H]43)nc21 (relative stereo) [Compound 23, 8-[(1R*,2R*,5R*)-Bicyclo[3.3.0]octan-2-yl]-3-propylxanthine] | – | – | – | – | – | more than 300 mg/kg | significantly suppressed | significantly improved | – | – | – | – | – | – | –
8 | CCCn1c(=O)c2nc(C34CC5CC(CC3C5)C4)[nH]c2n(CCC)c1=S [Compound 31, 8-(Noradamantan-3-yl)-1,3-dipropyl-2-thioxanthine] | more than 300 mg/kg | 56 | 126 | 115 | 1.44 | – | significantly suppressed | significantly improved | – | – | – | – | – | – | –
9 | CCCn1c(=O)c2nc(C3CC4CCC3C4)[nH]c2n(CCC)c1=O (stereo not drawn) [Compound 4, 8-[(1R*,2R*,5S*)-bicyclo[2.2.1)heptan-2-yl]-1,3-dipropylxanthine] | more than 300 mg/kg | 27 | 106 | 113 | 1.63 | – | – | – | – | – | – | – | – | – | –
10 | CCCn1c(=O)c2[nH]c([C@H]3C[C@H]4CC[C@@H]3C4)nc2n(CCC)c1=O (relative stereo) [Compound 3, 8-[(1R*,2S*,5S*)-Bicyclo[2,2,1]heptan-2-yl]-1,3-dipropylxanthine] | more than 300 mg/kg | 29 | 137 | 154 | 1.84 | – | – | – | 83 | 90 | 330 | 75.0 | 4.4 | 100 | 100
11 | CCCn1c(=O)c2[nH]c([C@@H]3C[C@@H]4C=C[C@@H]3C4)nc2n(CCC)c1=O (relative stereo) [Compound 2, 8-[(1R*,4S*,5R*)-2-bicyclo[2.2.1]hepten-5-yl]-1,3-dipropylxanthine] | more than 300 mg/kg | 67 | 109 | 87 | 1.25 | – | – | – | – | – | – | – | – | – | –
12 | CCCn1c(=O)c2[nH]c(Cc3csc(N)n3)nc2n(CCC)c1=O [Compound 12, 8-(2-Aminothiazol-4-yl)methyl-1,3-dipropylxanthine] | – | 32 | 103 | 108 | 1.54 | 300 mg/kg | – | – | – | – | – | – | – | – | –
13 | CCCn1c(=O)c2[nH]c([C@H]3C[C@@H]4C=C[C@@H]3C4)nc2n(CCC)c1=O (relative stereo) [Compound 1, 8-[(1R*,4S*,5S*)-2-Bicyclo[2.2.1]hepten-5-yl]-1,3-dipropylxanthine] | more than 300 mg/kg | 36 | 73 | 106 | 1.27 | – | – | – | 88 | 97 | 510 | 92.7 | 5.5 | 99 | 99

— patent publication EP0415456A2, “Xanthine compounds” (priority 1989, dated 1991)
